Patent US6737383B1, “Herbicidal oxadiazolidines” (priority 1999, dated 2004)

Columns and labels:
kochia = experiment: Test E kochia; format: in vivo, Kochia scoparia; conditions: Preemergence
downy brome [1] = experiment: Test E downy brome; format: in vivo, Bromus tectorum; conditions: Preemergence
downy brome [2] = experiment: Test E downy brome; format: in vivo, Bromus tectorum; conditions: Postemergence; for Plant response rating, Downy brome: 0 to 100 scale
Protocol: (§1) Compounds evaluated in this test were formulated in a non-phytotoxic solvent mixture which included a surfactant and applied to plants that were in the 1- to 4-leaf stage (postemergence application). A mixture of sandy loam soil and greenhouse potting mix in a 60:40 ratio was used for the postemergence test.
(§2) Plantings of these crops and weed species were adjusted to produce plants of appropriate size for the postemergence test. All plant species were grown using normal greenhouse practices. Crop and weed species include annual bluegrass (Poa annua), blackgrass (Alopecurus myosuroides), black nightshade (Solanum nigra), chickweed (Stellaria media), common poppy (Papaver rhoeas), deadnettle (Lamium amplexicaule), downy brome (Bromus tectorum), field violet (Viola arvensis), galium (Galium aparine), green foxtail (Setaria viridis), Italian ryegrass (Lolium multiflorum), jointed goatgrass (Aegilops cylindrica), kochia (Kochia scoparia), lambsquarters (Chenopodium album), littleseed canarygrass (Phalaris minor), rape (Brassica napus), redroot pigweed (Amaranthus retroflexus), Russian thistle (Salsola kali), scentless chamomile (Matricaria inodora), spring barley (Hordeum vulgare), sugar beet (Beta vulgaris), sunflower (Helianthus annuus), ivyleaf speedwell (Veronica hederaefolia), spring wheat (Triticum aestivum), winter wheat (Triticum aestivum), wild buckwheat (Polygonum convolvulus), wild mustard (Sinapis arvensis), wild oat (Avena fatua), windgrass (Apera spica-venti) and winter barley (Hordeum vulgare).
(§3) Treated plants and untreated controls were maintained in a greenhouse for approximately 21 to 28 days, after which all treated plants were compared to untreated controls and visually evaluated. […] A dash response (-) means no test result.

spring wheat = experiment: Test E spring wheat; format: in vivo, Triticum aestivum; conditions: Postemergence
Protocol: as §1, §2, §3

littleseed canarygrass [3] = experiment: Test E littleseed canarygrass; format: in vivo, Phalaris minor; conditions: Postemergence
Method in brief: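 Visually scored herbicidal effect relative to untreated plants, taken ~21 to 28 days post-application; compound in solvent with surfactant; postemergence sprays at the 1- to 4-leaf stage.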

jointed goatgrass [4] = experiment: Test E jointed goatgrass; format: in vivo, Aegilops cylindrica; conditions: Preemergence
field violet [5] = experiment: Test E field violet; format: in vivo, Viola arvensis; conditions: Preemergence
Russian thistle = experiment: Test E Russian thistle; format: in vivo, Salsola kali; conditions: Preemergence
Italian ryegrass = experiment: Test E Italian ryegrass; format: in vivo, Lolium multiflorum; conditions: Postemergence
Protocol: as §1, §2, §3

field violet [6] = experiment: Test E field violet; format: in vivo, Viola arvensis; conditions: Postemergence
Protocol: as §1, §2, §3

spring barley = experiment: Test E spring barley; format: in vivo, Hordeum vulgare; conditions: Preemergence
sunflower = experiment: Test E sunflower; format: in vivo, Helianthus annuus; conditions: Postemergence
Protocol: as §2, with “Plantings of these crops and weed species were adjusted to produce plants of appropriate size for the postemergence test.” left out
as §3

common poppy = experiment: Test E common poppy; format: in vivo, Papaver rhoeas; conditions: Postemergence
Protocol: as §1, §2, §3

ivyleaf speedwell = experiment: Test E postemergence ivyleaf speedwell; format: in vivo, Veronica hederaefolia
Protocol: as §1, §2, §3

wild mustard = experiment: Test E wild mustard; format: in vivo, Sinapis arvensis; conditions: Postemergence
Protocol: […] A mixture of sandy loam soil and greenhouse potting mix in a 60:40 ratio was used for the postemergence test.
as §2, §3

sugar beet = experiment: Test E sugar beet; format: in vivo, Beta vulgaris; conditions: Postemergence
Protocol: as §1, §2, §3

wild oat = experiment: Test E wild oat; format: in vivo, Avena fatua; conditions: Postemergence
Protocol: as §1, §2, §3

jointed goatgrass [7] = experiment: Test E jointed goatgrass; format: in vivo, Aegilops cylindrica; conditions: Postemergence
Protocol: as §1, §2, §3

littleseed canarygrass [8] = experiment: Test E littleseed canarygrass; format: in vivo, Phalaris minor; conditions: Preemergence
windgrass = experiment: Test E windgrass; format: in vivo, Apera spica-venti; conditions: Preemergence
redroot pigweed = experiment: Test E redroot pigweed; format: in vivo, Amaranthus retroflexus; conditions: Postemergence
Protocol: as §1, §2, §3

scentless chamomile = experiment: Test E scentless chamomile; format: in vivo, Matricaria inodora; conditions: Postemergence
Protocol: as §1, §2, §3

[9] = Rate 62 g/ha, 0 to 100 scale, 0 no effect, 100 complete control
[10] = Rate 125 g/ha, 0 to 100 scale (0 no effect, 100 complete control)
[11] = Rate 250 g/ha, 0 to 100 scale (0 no effect, 100 complete control)

## CCn1c(=O)on(C(=O)N(c2ccc(Cl)cc2)C(C)C)c1=O [Compound 108]
kochia; [9]
  Plant response rating, Kochia: 50
kochia; [10]
  Plant response rating, Kochia: 50
kochia; Rate 250 g/ha, 0 to 100 scale
  Plant response rating, Kochia: 40
Downy brome [1]; [9]
  Plant response rating, Downy brome: 30
Downy brome [1]; [10]
  Plant response rating, Downy brome: 30
Downy brome [1]; Rate 250 g/ha, 0 to 100 scale
  Plant response rating, Downy brome: 70
Downy brome [2]; Rate 62 g/ha
  Plant response rating, Downy brome: 0
Downy brome [2]; Rate 125 g/ha
  Plant response rating, Downy brome: 0
Downy brome [2]; [11]
  Plant response rating, Downy brortie: 0
Spring wheat; Rate 62 g/ha, 0 to 100 scale
  Plant response rating, Spring Wheat: 10
Spring wheat; Rate 125 g/ha, 0 to 100 scale
  Plant response rating, Spring Wheat: 10
Spring wheat; [11]
  Plant response rating, Spring Wheat: 20
Littleseed canarygrass [3]; Rate 62 g/ha, 0 to 100 scale
  Plant response rating, LS canarygrass: 0
Littleseed canarygrass [3]; Rate 125 g/ha, 0 to 100 scale
  Plant response rating, LS canarygrass: 20
Littleseed canarygrass [3]; [11]
  Plant response rating, LS canarygrass: 70
Jointed goatgrass [4]; [9]
  Plant response rating, Jointed goatgra: 30
Jointed goatgrass [4]; [10]
  Plant response rating, Jointed goatgra: 40
Jointed goatgrass [4]; Rate 250 g/ha, 0 to 100 scale
  Plant response rating, Jointed goatgra: 60
Field violet [5]; [9]
  Plant response rating, Field violet: 15
Field violet [5]; [10]
  Plant response rating, Field violet: 0
Field violet [5]; Rate 250 g/ha, 0 to 100 scale
  Plant response rating, Field violet: 20
Russian thistle; [9]
  Plant response rating, Russian thistle: 0
Russian thistle; [10]
  Plant response rating, Russian thistle: 0
Russian thistle; Rate 250 g/ha, 0 to 100 scale
  Plant response rating, Russian thistle: 15
Italian ryegrass; Rate 62 g/ha, 0 to 100 scale
  Plant response rating, I. Ryegrass: 20
Italian ryegrass; Rate 125 g/ha, 0 to 100 scale
  Plant response rating, I. Ryegrass: 5
Italian ryegrass; [11]
  Plant response rating, I. Ryegrass: 40
Field violet [6]; Rate 62 g/ha, 0 to 100 scale
  Plant response rating, Field violet: 0
Field violet [6]; Rate 125 g/ha, 0 to 100 scale
  Plant response rating, Field violet: 0
Field violet [6]; [11]
  Plant response rating, Field violet: 20
Spring barley; [9]
  Plant response rating, Spring Barley: 10
Spring barley; [10]
  Plant response rating, Spring Barley: 10
Spring barley; Rate 250 g/ha, 0 to 100 scale
  Plant response rating, Spring Barley: 5
sunflower; Rate 62 g/ha, 0 to 100 scale
  Plant response rating, Sunflower: 20
sunflower; Rate 125 g/ha, 0 to 100 scale
  Plant response rating, Sunflower: 30
sunflower; [11]
  Plant response rating, Sunflower: 35
Common poppy; Rate 62 g/ha, 0 to 100 scale
  Plant response rating, Common poppy: 10
Common poppy; Rate 125 g/ha, 0 to 100 scale
  Plant response rating, Comnion poppy: 0
Common poppy; [11]
  Plant response rating, Common poppy: 0
Ivyleaf speedwell; Rate 62 g/ha, 0 to 100 scale
  Plant response rating, Veronica hedera: 0
Ivyleaf speedwell; Rate 125 g/ha, 0 to 100 scale
  Plant response rating, Veronica hedera: 10
Ivyleaf speedwell; [11]
  Plant response rating, Veronica hedera: 40
Wild mustard; Rate 62 g/ha, 0 to 100 scale
  Plant response rating, Wild mustard: 5
Wild mustard; Rate 125 g/ha, 0 to 100 scale
  Plant response rating, Wild mustard: 10
Wild mustard; [11]
  Plant response rating, Wild mustard: 80
Sugar beet; Rate 62 g/ha, 0 to 100 scale
  Plant response rating, Sugar beet: 5
Sugar beet; Rate 125 g/ha, 0 to 100 scale
  Plant response rating, Sugar beet: 10
Sugar beet; [11]
  Plant response rating, Sugar beet: 20
Wild oat; Rate 62 g/ha, 0 to 100 scale
  Plant response rating, Wild oat: 0
Wild oat; Rate 125 g/ha, 0 to 100 scale
  Plant response rating, Wild oat: 5
Wild oat; [11]
  Plant response rating, Wild oat: 20
Jointed goatgrass [7]; Rate 62 g/ha, 0 to 100 scale
  Plant response rating, Jointed goatgra: 10
Jointed goatgrass [7]; Rate 125 g/ha, 0 to 100 scale
  Plant response rating, Jointed goatgra: 10
Jointed goatgrass [7]; [11]
  Plant response rating, Jointed goatgra: 10
Littleseed canarygrass [8]; [9]
  Plant response rating, LS canarygrass: 60
Littleseed canarygrass [8]; [10]
  Plant response rating, LS canarygrass: 50
Littleseed canarygrass [8]; Rate 250 g/ha, 0 to 100 scale
  Plant response rating, LS canarygrass: 70
windgrass; [9]
  Plant response rating, Windgrass: 100
windgrass; [10]
  Plant response rating, Windgrass: 100
Redroot pigweed; Rate 62 g/ha, 0 to 100 scale
  Plant response rating, Redroot pigweed: 5
Redroot pigweed; Rate 125 g/ha, 0 to 100 scale
  Plant response rating, Redroot pigweed: 20
Redroot pigweed; [11]
  Plant response rating, Redroot pigweed: 30
Scentless chamomile; Rate 62 g/ha, 0 to 100 scale
  Plant response rating, Scentless chamo: 10
Scentless chamomile; Rate 125 g/ha, 0 to 100 scale
  Plant response rating, Scentless chamo: 0
Scentless chamomile; [11]
  Plant response rating, Scentless chamo: 10
